The structures appear in SMILES notation. pEC50: −log10 of the molar value. Like-named read-outs stand apart in the source and are kept apart here. Where only a bound is given, the exact number is not on record here.

One may read the pEC50 as the negative decadic logarithm of the EC50, by convention in mol/L. The EC50 is the midpoint of the concentration-response curve. Read a high EC50 as a need for much substance.

In the assay the test system is THP1-Dual™ reporter cells. The experiment in a line: THP1-Dual cell reporter assay (IRF-Lucia luciferase reporter). In kind it is cell-based, human. The following applies: for pEC50: Homo sapiens, THP1-Dual, free compounds, 24 h, Lucia reporter signal, read-out: EC50. As for the experimental part:
THP1-Dual™ Cell Reporter Assay
Potency of compounds and ADCs was evaluated using the THP1-Dual™ cells (InvivoGen PN: thpd-nfis [also referred to as THP1 dual reporter cells]), which contain an IRF-Lucia luciferase reporter. Cells were cultured in RPMI-1640 (Gibco) with 10% heat-inactivated fetal bovine serum, Pen-Strep (100 U/mL-100 μg/mL, Gibco), HEPES (10 mM, Gibco)), sodium pyruvate (1 mM, Gibco), MEM non-essential amino acids (1×, Gibco), GlutaMAX (1×, Gibco), and beta-mercaptoethanol (55 μM, Gibco). Cells were plated in a 96-well flat bottom tissue culture-treated clear polystyrene plate (Corning Costar #3596) at ˜100,000 cells per well in 200 μL with the indicated concentration of the compound or ADC. The supernatant was harvested at 24 hours (compounds) or 48 hours (ADC) post plating for the reporter assay, or as indicated. To measure Lucia reporter signal, 10 μL of the supernatant was combined with 40 μL of QUANTI-Luc™ Luminescence assay reagent (Invivogen PN: rep-qlc1) in a 96-well clear flat bottom tissue culture-treated black polystyrene plate (Corning Costar #3603) and read on a Perkin Elmer Envision plate reader.
STING agonist compounds were assessed for their ability to activate THP1-Dual™ reporter cells, a human monocytic cell line in which type I interferon (IRF) signaling can be monitored via a secreted luciferase reporter protein (Lucia). THP1-Dual™ cells were treated with increasing concentrations of the agonists for 24h, then supernatants were harvested and the Lucia reporter signal was quantified using QUANTI-Luc™ Luminescence assay reagent.
(In general: In a reporter assay the amount or activity of a reporter protein is the signal.)

The mark [1] stands for this setting: ADCs: drug linker conjugated to a targeted mAb, 48 h.

Turning to `CCn1nc(C)cc1C(=O)Nc1nc2cc(S(N)(=O)=O)ccc2n1C/C=C/Cn1c(NC(=O)c2cc(C)nn2CC)nc2cc(C(N)=O)cc(OCCCN(C)C(=O)CCN3C(=O)CC(SC[C@H](N)C(=O)O)C3=O)c21` (stereo partly drawn) [Compound 28, S-(1-(3-((3-((5-carbamoyl-2-(1-ethyl-3-methyl-1H-pyrazole-5-carboxamido)-1-((E)-4-(2-(1-ethyl-3-methyl-1H-pyrazole-5-carboxamido)-5-sulfamoyl-1H-benzo[d]imidazol-1-yl)but-2-en-1-yl)-1H-benzo[d]imidazol-7-yl)oxy)propyl)(methyl)amino)-3-oxopropyl)-2,5-dioxopyrrolidin-3-yl)-L-cysteine], the pEC50 was 6.02.

For `COc1cc(C(N)=O)cc2nc(NC(=O)c3ncccn3)n(C/C=C/Cn3c(NC(=O)c4ncccn4)nc4cc(C(N)=O)cc(O)c43)c12` [Compound 44], the pEC50 was below 5.00.

`CCn1nc(C)cc1C(=O)Nc1nc2cc(C(N)=O)cc(OC)c2n1C/C=C/Cn1c(NC(=O)c2cc(C)nn2C)nc2cc(C(N)=O)cc(OCCCOC3CNC3)c21` [Compound 142, (E)-7-(3-(azetidin-3-yloxy)propoxy)-1-(4-(5-carbamoyl-2-(1-ethyl-3-methyl-1H-pyrazole-5-carboxamido)-7-methoxy-1H-benzo[d]imidazol-1-yl)but-2-en-1-yl)-2-(1,3-dimethyl-1H-pyrazole-5-carboxamido)-1H-benzo[d]imidazole-5-carboxamide]: the pEC50 is 5.95.

Take `CCn1nc(C)cc1C(=O)Nc1nc2cc(C(N)=O)cc(OC)c2n1C/C=C/Cn1c(NC(=O)c2cc(C)nn2CC)nc2cc(C(N)=O)cc(OCCCN(C)C(=O)[C@H](C)NC(=O)CCN3C(=O)CC(SC[C@H](N)C(=O)O)C3=O)c21` (stereo partly shown) [Compound 74]: the pEC50 is 7.44.

Consider `COc1cc(C(N)=O)cc2nc(NC(=O)c3cnccn3)n(C/C=C/Cn3c(NC(=O)c4cnccn4)nc4cc(C(N)=O)cc(O)c43)c12` [Compound 46], for which the pEC50 was below 5.00.

With `CCn1nc(C)cc1C(=O)Nc1nc2cc(C(N)=O)cc(OC)c2n1C/C=C/Cn1c(NC(=O)c2cc(C)sn2)nc2cc(C(N)=O)cc(OCCCNC)c21` [Compound 90], the pEC50 is below 5.00.

Consider `CCn1nc(C)cc1C(=O)Nc1nc2cc(S(N)(=O)=O)ccc2n1C/C=C/Cn1c(NC(=O)c2cc(C)nn2CC)nc2cc(C(N)=O)cc(OCCCOC3CN(C(=O)CCN4C(=O)C=CC4=O)C3)c21` [Compound 146, (E)-7-(3-((1-(3-(2,5-dioxo-2,5-dihydro-1H-pyrrol-1-yl)propanoyl)azetidin-3-yl)oxy)propoxy)-2-(1-ethyl-3-methyl-1H-pyrazole-5-carboxamido)-1-(4-(2-(1-ethyl-3-methyl-1H-pyrazole-5-carboxamido)-5-sulfamoyl-1H-benzo[d]imidazol-1-yl)but-2-en-1-yl)-1H-benzo[d]imidazole-5-carboxamide], for which the “EC50 (ng/mL)” value under setting [1] is reported as >10,000 ng/mL.

For `CCn1nc(C)cc1C(=O)Nc1nc2cc(C(N)=O)cc(OC)c2n1C/C=C/Cn1c(NC(=O)c2cc(C)nn2CC)nc2cc(C(N)=O)cc(OCCCN(C(=O)CCN3C(=O)C=CC3=O)C3CC3)c21` [Compound 133, (E)-1-(4-(5-carbamoyl-2-(1-ethyl-3-methyl-1H-pyrazole-5-carboxamido)-7-methoxy-1H-benzo[d]imidazol-1-yl)but-2-en-1-yl)-7-(3-(N-cyclopropyl-3-(2,5-dioxo-2,5-dihydro-1H-pyrrol-1-yl)propanamido)propoxy)-2-(1-ethyl-3-methyl-1H-pyrazole-5-carboxamido)-1H-benzo[d]imidazole-5-carboxamide], the “EC50” value under setting [1] came out at 0.0122 µg/mL.

For `COc1cc(C(N)=O)cc2nc(NC(=O)Cn3nc(C)cc3C)n(C/C=C/Cn3c(NC(=O)Cn4nc(C)cc4C)nc4cc(C(N)=O)cc(O)c43)c12` [Compound 48], the pEC50 was below 5.00.

On to `CCc1cc(C(=O)Nc2nc3cc(C(N)=O)cc(O)c3n2C/C=C/Cn2c(NC(=O)c3cc(CC)nn3C)nc3cc(C(N)=O)cc(OC)c32)n(C)n1` [Compound 53], for which the pEC50 was below 5.00.

For the compound `CCn1nc(C)cc1C(=O)Nc1nc2cc(C(N)=O)cc(OC)c2n1C/C=C/Cn1c(NC(=O)c2cc(C)nn2CC)nc2cc(C(N)=O)cc(OCCCN(C)C(=O)[C@H](CO)NC(=O)CCN3C(=O)CC(SC[C@H](N)C(=O)O)C3=O)c21` (stereo partly shown) [Compound 75], the pEC50 was 7.24.

Turning to `CCn1nc(C)cc1C(=O)Nc1nc2cc(C(=O)OC)cc(OC)c2n1C/C=C/Cn1c(NC(=O)c2cc(C)nn2CC)nc2cc(C(=O)OC)cc(OCCCNC)c21` [Compound 66b], the pEC50 is 5.94.

Consider `CCc1nc(C)oc1C(=O)Nc1nc2cc(C(N)=O)cc(OCCC3CN(C(=O)CCN4C(=O)CC(SC[C@H](N)C(=O)O)C4=O)C3)c2n1C/C=C/Cn1c(NC(=O)c2cc(C)nn2CC)nc2cc(C(N)=O)cc(OC)c21` (stereo partly drawn) [Compound 154, S-(1-(3-(3-(2-((5-carbamoyl-1-((E)-4-(5-carbamoyl-2-(1-ethyl-3-methyl-1H-pyrazole-5-carboxamido)-7-methoxy-1H-benzo[d]imidazol-1-yl)but-2-en-1-yl)-2-(4-ethyl-2-methyloxazole-5-carboxamido)-1H-benzo[d]imidazol-7-yl)oxy)ethyl)azetidin-1-yl)-3-oxopropyl)-2,5-dioxopyrrolidin-3-yl)-L-cysteine], for which the pEC50 is below 5.00.

For the compound `CCn1nc(C)cc1C(=O)Nc1nc2cc(C(N)=O)cc(OC)c2n1C/C=C/Cn1c(NC(=O)c2cc(C)nn2C)nc2cc(C(N)=O)cc(OCCCOC3CN(C(=O)CCN4C(=O)CC(SC[C@H](N)C(=O)O)C4=O)C3)c21` (stereo partly drawn) [Compound 155, S-(1-(3-(3-(3-((5-carbamoyl-1-((E)-4-(5-carbamoyl-2-(1-ethyl-3-methyl-1H-pyrazole-5-carboxamido)-7-methoxy-1H-benzo[d]imidazol-1-yl)but-2-en-1-yl)-2-(1,3-dimethyl-1H-pyrazole-5-carboxamido)-1H-benzo[d]imidazol-7-yl)oxy)propoxy)azetidin-1-yl)-3-oxopropyl)-2,5-dioxopyrrolidin-3-yl)-L-cysteine], the pEC50 was 7.03.

`CCn1nc(C)cc1C(=O)Nc1nc2cc(C(=O)O)cc(OC)c2n1C/C=C/Cn1c(NC(=O)c2cc(C)nn2CC)nc2cc(C(N)=O)cc(OCCCN(C)C(=O)CCN3C(=O)C=CC3=O)c21` [Compound 126, (E)-1-(4-(5-carbamoyl-7-(3-(3-(2,5-dioxo-2,5-dihydro-1H-pyrrol-1-yl)-N-methylpropanamido)propoxy)-2-(1-ethyl-3-methyl-1H-pyrazole-5-carboxamido)-1H-benzo[d]imidazol-1-yl)but-2-en-1-yl)-2-(1-ethyl-3-methyl-1H-pyrazole-5-carboxamido)-7-methoxy-1H-benzo[d]imidazole-5-carboxylic acid]: the “EC50 (ng/mL)” value under setting [1] is >10,000 ng/mL.

On to `COc1cc(C(N)=O)cc2nc(NC(=O)c3ccncn3)n(C/C=C/Cn3c(NC(=O)c4ccncn4)nc4cc(C(N)=O)cc(O)c43)c12` [Compound 45], for which the pEC50 is below 5.00.

As to `CCn1nc(C)cc1C(=O)Nc1nc2cc(C(N)=O)cc(OC)c2n1C/C=C/Cn1c(NC(=O)c2ncccn2)nc2cc(C(N)=O)cc(OCCCNC)c21` [Compound 84], the pEC50 is below 5.00.

`CCn1nc(C)cc1C(=O)Nc1nc2cc(C(N)=O)cc(OC)c2n1C/C=C/Cn1c(NC(=O)c2c(C)cnn2C)nc2cc(C(N)=O)cc(OCCCNC)c21` [Compound 93]: the pEC50 is below 5.00.

`CCc1nc(C)oc1C(=O)Nc1nc2cc(C(N)=O)cc(OCCCNC)c2n1C/C=C/Cn1c(NC(=O)c2cc(C)nn2CC)nc2cc(C(N)=O)cc(OC)c21` [Compound 95]: the pEC50 was 7.89.

As for `CCn1nc(C)cc1C(=O)Nc1nc2cc(C(=O)O)cc(OC)c2n1C/C=C/Cn1c(NC(=O)c2cc(C)nn2CC)nc2cc(C(=O)O)cc(OCCCN(C)C(=O)CCN3C(=O)C=CC3=O)c21` [Compound 68, (E)-1-(4-(5-carboxy-2-(1-ethyl-3-methyl-1H-pyrazole-5-carboxamido)-7-methoxy-1H-benzo[d]imidazol-1-yl)but-2-en-1-yl)-7-(3-(3-(2,5-dioxo-2,5-dihydro-1H-pyrrol-1-yl)-N-methylpropanamido)propoxy)-2-(1-ethyl-3-methyl-1H-pyrazole-5-carboxamido)-1H-benzo[d]imidazole-5-carboxylic acid], the “EC50 (ng/mL)” value under setting [1] is >10,000 ng/mL.

With `CCn1cc(C(=O)Nc2nc3cc(C(N)=O)cc(OCCCN(C)C(=O)CCN4C(=O)C=CC4=O)c3n2C/C=C/Cn2c(NC(=O)c3cc(C)nn3CC)nc3cc(C(N)=O)cc(OC)c32)c(C)n1` [Compound 102], the “EC50 (ng/mL)” value under setting [1] was >10,000 ng/mL.

Take `CCn1nc(C)cc1C(=O)Nc1nc2cc(C(=O)OC)cc(OC)c2n1C/C=C/Cn1c(NC(=O)c2cc(C)nn2CC)nc2cc(C(N)=O)cc(OCCCN(C)C(=O)CCN3C(=O)CC(SC[C@H](N)C(=O)O)C3=O)c21` (stereo partly drawn) [Compound 129, S-(1-(3-((3-((5-carbamoyl-2-(1-ethyl-3-methyl-1H-pyrazole-5-carboxamido)-1-((E)-4-(2-(1-ethyl-3-methyl-1H-pyrazole-5-carboxamido)-7-methoxy-5-(methoxycarbonyl)-1H-benzo[d]imidazol-1-yl)but-2-en-1-yl)-1H-benzo[d]imidazol-7-yl)oxy)propyl)(methyl)amino)-3-oxopropyl)-2,5-dioxopyrrolidin-3-yl)-L-cysteine]: the pEC50 was 6.08.
